Non-standard residues stand in square brackets, D forms with d. Residues, ends and D or L forms follow the SMILES beside them. *: point of attachment. Propanoyl(3-(3-pyridyl)) = O=C(CCc1cccnc1)*; Arg(Me) = CNC(=N)NCCC[C@H](N)C(=O)O; d4Pal = N[C@H](Cc1ccncc1)C(=O)O; azaGly = NNC(=O)O

Test [1] is described as follows: Effect of elevating sugar level by metastin derivatives (blood glucose and glucagon). Format: in vivo, rat. To be noted: Wistar male rats; for blood glucose level: i.v. 80 nmol/kg (FIG. 10); for blood glucagon level: i.v. 80 nmol/kg (FIG. 11). The text has this:
The value indicates (mean±SE) (n=5). Symbol * designates that the P-value is 0.05 or less, when compared to the saline group and symbol ** designates that the P-value is 0.01 or less, when compared to the saline group.
In the figure, symbols open circle, closed circle and closed triangle designate blood glucagon level in the saline group and the 80 nmol/kg KiSS1-305 (Compound No. 305) group, the 80 nmol/kg KiSS1-322 (Compound No. 322) group, respectively. The value indicates (mean±SE) (n=5). Symbol * designates that the P-value is 0.05 or less, when compared to the saline group.
An operation was performed in free moving mature Wistar male rats (weighing […] at the time of operation) in a manner similar to TEST EXAMPLE 1 to collect blood. After the operation, the animal was maintained overnight. […] To prevent blood clotting, 3 μl of 300 KIU/ml aprotinin solution containing 3 mg/ml EDTA had previously been filled in the syringe. […] Blood was collected from the jugular vein by 300 μl each 2, 5, 15, 30, 45 and 60 minutes starting from the intravenous injection. The collected blood was centrifuged (13,000 rpm, 5 minutes) with a high speed refrigerated centrifuge (MR-150, Tomy Seiko Co, Ltd.) to recover the supernatant (plasma). Glucose level in blood was measured using Fuji Drychem 3500 (FUJI FILM) and glucagon level in blood was measured using a glucagon kit “Daiichi” (Daiichi Radioisotope Laboratories Ltd.), as in TEST EXAMPLE 1 or 2.

Test [2] in a line: Action of reducing testosterone level in blood in mature male rat (1 mM peptide in 50% DMSO, ALZET osmotic pump). Type of test: in vivo. To be noted: 1 mM peptide in 50% DMSO aqueous solution, ALZET osmotic pump s.c., six days.
The nature of test [3]: Blood testosterone level decreasing effect in mature male rat (0.1 mM peptide solution). Format: in vivo. As for the experimental part:
(§1) This peptide solution was filled in 5 ALZET osmotic pumps (Model 2001, 0.2 ml in volume, release rate: 0.001 ml/hr, DURECT Corporation). The ALZET pumps filled with the peptide solution were implanted subcutaneously in 5 CD(SD)IGS male rats of 9 weeks old after birth (Charles River Japan, Inc.) on the back under ether anesthesia by one pump for one animal. For negative control, distilled water (Otsuka Pharmaceutical Co., Ltd.) was filled in 5 ALZET osmotic pumps, which were similarly implanted in 5 male CD(SD)IGS rats (Charles River Japan, Inc.), respectively. These pump-implanted rats were fed for 6 days under normal feeding conditions. After weighing, the animal was decapitated to collect blood. After 0.03 ml/ml blood of aprotinin solution (Trasylol, Bayer) containing 0.1 mg/ml EDTA.2Na was added to blood, the mixture was centrifuged at 1,800 G for 25 minutes to isolate/recover plasma. From the plasma obtained, 0.05 ml was applied to radioimmunoassay (DPC.Total Testosterone Kit, Diagnostic Products Corporation) to measure the plasma testosterone level of each rat. The value below the limit of measurement (0.04 ng/ml of plasma level) in radioimmunoassay was treated as 0. A mean value of the testosterone levels from 5 rats receiving the peptide was calculated and a relative value (percent) of the mean value to a mean value from 5 rats receiving distilled water.
In a manner similar to TEST EXAMPLE 14, evaluation was made using 0.1 mM peptide solution and a part of the results obtained are shown in TABLE 30.

A short description of test [4]: Blood testosterone level decreasing effect in mature male rat (2 mM peptide solution, ALZET osmotic pump). Type of test: in vivo. The note with it: 2 mM peptide solution in distilled water, ALZET osmotic pump s.c., 6 days, Tables 28 and 29. As for the experimental part:
as §1

`CNC(=N)NCCC[C@H](NC(=O)[C@H](CC(C)C)NC(=O)NNC(=O)[C@H](Cc1ccccc1)NC(=O)[C@H](CO)NC(=O)[C@H](CC(N)=O)NC(=O)[C@@H](Cc1ccncc1)NC(=O)[C@H](N)Cc1ccc(O)cc1)C(=O)N[C@@H](Cc1ccccc1)C(N)=O` [Compound No. 305, D-Tyr-D-Pya(4)-Asn-Ser-Phe-AzaGly-Leu-Arg(Me)-Phe-NH2] (H-[dY][d4Pal]NSF[azaGly]L[Arg(Me)]F-NH2): the blood glucose level result in test [1] is “increase in the blood glucose level”. In test [1], the blood glucagon level result was “increase in the blood glucagon level”. For the same compound, in test [2], the “Testosterone level in Blood” value was 2%. Besides, the “Teststerone level in Blood” value was 48% in test [3] and 2% in test [4].
Turning to `CNC(=N)NCCC[C@H](NC(=O)[C@H](CC(C)C)NC(=O)NNC(=O)[C@H](Cc1ccccc1)NC(=O)[C@H](CO)NC(=O)[C@H](CC(N)=O)NC(=O)CCc1cccnc1)C(=O)N[C@@H](Cc1ccccc1)C(N)=O` [Compound No. 322, 3-(3-Pyridyl)propionyl-Asn-Ser-Phe-AzaGly-Leu-Arg(Me)-Phe-NH2] ({Propanoyl(3-(3-pyridyl))}-NSF[azaGly]L[Arg(Me)]F-NH2), in test [1], the blood glucose level result is “increase in the blood glucose level” and the blood glucagon level entry was “increase in the blood glucagon level”.

For the origin of these results see patent publication US8778871B2 (Takeda Pharmaceutical Company Limited, priority 2004, dated 2014).
